Experimental data published in patent US20080145886A1, “Assay for Cytochrome P450 Isoforms 3A4 and 3A5” (priority 2004, published 2008).

Columns and labels:
CYP3A4/5 [1] = target: T1, CYP3A4/5 (Homo sapiens, UniProt P08684); assay: in vitro; details: pH 7.6; for IC50: microsomes
Protocol: Pooled HLM were obtained from Gentest Corp. (Woburn, Mass.). Inhibitors were added to the reaction mixture from stock solutions in DMSO, giving a final solvent concentration of 0.6% (v/v). No inhibitor controls contained an equivalent amount of vehicle. Following preincubation for 10 minutes at 37° C., reactions were started by addition of 1 mM NADPH and an NADPH regenerating system containing 5 mM glucose-6-phosphate, 3 mM MgCl2, and 1 U/mL glucose-6-phosphate dehydrogenase. Assays were conducted for 10 minutes at 37° C. and stopped by addition of HCl to a final concentration of 0.1 N. Plates were then centrifuged for 10 minutes in a microplate rotor and supernatants loaded into the wells of a preconditioned 30 mg OASIS 96-well HLB plate. OASIS HLB 96 well extraction plates containing 10 or 30 mg of OASIS sorbent and vacuum manifold were purchased from Waters Corp. Vacuum was applied and the void volume collected in the collection plate. Then, 200 μL of water was added, vacuum was applied again, and the wash was collected into the same plate. This step was repeated. Pooled void volume and water washes were transferred into scintillation vials and counted in a beta-scintillation counter. Alternatively, aliquots were counted in […] scintillation plates using a TOPCOUNT scintillation counter (Packard, Perkin Elmer, Boston, Mass.). For the calculation of enzyme activity, product counts were corrected by subtraction of counts obtained in control incubations performed in the absence of NADPH regenerating system.
Total radioactivity was 100,000 to 200,000 dpm, reaction volume was 100 μL, and solvent concentration (coming from inhibitor stock solutions) was 0.3-0.7% DMSO and 0.5% acetonitrile (v/v). […] Radioactivity was determined using a Beckman beta scintillation counter, or by counting 120 μL aliquots in 96-well scintillation plates using a TOPCOUNT scintillation counter. […]
Without using the known ^TV/K ratio (which would be tautological, since it was derived from SAP), v′, the apparent formation rate of unlabelled product, can be calculated. […]

CYP3A4/5 [2] = target: T1, CYP3A4/5; details: HLM
CYP3A4/5 [3] = target: T1, CYP3A4/5; details: HLM; remark: listed apart in the source
CYP3A4/5 [4] = tested on: CYP3A4/5
Protocol: Cryopreserved human hepatocytes from two different donors were obtained from Tissue Transformation Technologies (Edison, N.J.). […] CYP3A4/5 enzyme activity was then determined as follows.
The incubation medium was then loaded onto individual wells of preconditioned 30 mg OASIS plates, which were washed two times with 200 μL of water. For each well, the flow-through was combined with the water washes and counted in a beta-counter after addition of scintillation fluid. 6-p-hydroxytestosterone was eluted from the OASIS plates with 1 mL of methanol, dried under N2, and reconstituted in 200 uL of 50% acetonitrile/water (50:50) containing 0.1% of formic acid. Aliquots were injected into an HPLC-MS/MS system for quantification of 6β-hydroxytestosterone. Quantification was based on comparison of peak areas with those of a standard curve that was treated and extracted exactly like unknown samples.

CYP3A4/5 [5] = target: T1, CYP3A4/5; details: human hepatocytes, 200 μM testosterone, 10 μM ketoconazole, 1 hour
Protocol: For each well, the flow-through was combined with the water washes and counted in a beta-counter after addition of scintillation fluid.
Aliquots were injected into an HPLC-MS/MS system for quantification of 6β-hydroxytestosterone. Quantification was based on comparison of peak areas with those of a standard curve that was treated and extracted exactly like unknown samples.

CYP3A4 = CYP3A4 (Homo sapiens, UniProt P08684); details: read-out: IC50 (Draper et al.); competitive substrate; cited from earlier work
CYP3A4/5 [6] = target: T1, CYP3A4/5; assay: in vitro; details: microsomes
Protocol: Quantification of 6β-hydroxytestosterone and 2β-hydroxytestosterone. Aliquots of the assay reaction mixture and of metabolite standard curves were analyzed by HPLC using an Agilent HP1100 liquid chromatograph (Agilent Technologies) equipped with a CTC Analytics PAL autosampler (HTS PAL; CTC Analytics AG, Switzerland). Chromatography was performed on an XTERRA MS C18 column (4.6 mm×5 cm; 5 μm; Waters Corp.) at a flow rate of 1 mL/min, using a mobile phase consisting of a mixture of 0.1% formic acid in water (A) and 0.1% formic acid in acetonitrile (B) (linear gradient for 4 min from 5-100% B; 2 min at 100% B). The eluant was diverted to waste for the first minute, and then to a Sciex API-2000 triple quadrupole mass spectrometer with a Turbo Ionspray ionization source operated in the positive ion mode. […] Metabolite concentrations were determined by weighted linear least-squares regression analysis of peak area ratios vs. those of a standard curve, using Analyst Quantitation Wizard software version 1.4.

T1 sequence (P08684 2-503): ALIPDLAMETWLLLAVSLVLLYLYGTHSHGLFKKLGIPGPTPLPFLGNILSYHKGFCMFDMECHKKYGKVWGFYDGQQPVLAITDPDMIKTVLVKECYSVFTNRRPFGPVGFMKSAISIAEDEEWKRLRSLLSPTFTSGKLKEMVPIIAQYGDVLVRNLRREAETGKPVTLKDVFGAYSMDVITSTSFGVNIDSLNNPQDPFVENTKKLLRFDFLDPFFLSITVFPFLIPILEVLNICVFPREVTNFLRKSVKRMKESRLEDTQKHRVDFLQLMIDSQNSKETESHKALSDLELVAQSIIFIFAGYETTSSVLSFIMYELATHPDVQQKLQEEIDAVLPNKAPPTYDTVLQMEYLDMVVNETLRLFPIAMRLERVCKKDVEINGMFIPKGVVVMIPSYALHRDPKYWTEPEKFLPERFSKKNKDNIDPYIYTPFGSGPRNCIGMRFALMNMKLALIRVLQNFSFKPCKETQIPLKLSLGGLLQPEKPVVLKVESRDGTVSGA
Sequence of CYP3A4 (P08684 whole entry): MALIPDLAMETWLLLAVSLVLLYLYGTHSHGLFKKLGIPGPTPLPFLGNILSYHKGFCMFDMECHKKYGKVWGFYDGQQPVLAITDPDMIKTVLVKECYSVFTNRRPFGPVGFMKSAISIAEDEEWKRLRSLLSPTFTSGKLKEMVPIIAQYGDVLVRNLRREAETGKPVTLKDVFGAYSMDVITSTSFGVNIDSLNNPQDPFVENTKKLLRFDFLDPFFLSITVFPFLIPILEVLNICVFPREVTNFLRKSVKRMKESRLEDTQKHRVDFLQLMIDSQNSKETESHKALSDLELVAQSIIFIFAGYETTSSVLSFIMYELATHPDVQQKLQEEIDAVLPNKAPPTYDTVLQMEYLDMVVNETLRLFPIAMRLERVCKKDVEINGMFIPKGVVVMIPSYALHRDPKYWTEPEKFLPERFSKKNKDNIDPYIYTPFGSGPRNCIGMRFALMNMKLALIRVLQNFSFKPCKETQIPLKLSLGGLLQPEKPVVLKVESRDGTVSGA

For `C[C@]12CC[C@H]3[C@@H](CCC4=CC(=O)CC[C@@]43C)[C@@H]1CC[C@@H]2O` [testosterone], the “V′max (apparent maximal rate of product formation)” value (CYP3A4/5 [1]) was 1.3 ± 0.1 nmol/min/mg.
With `COC(=O)C1=C(C)NC(C)=C(C(=O)OCCN(C)Cc2ccccc2)C1c1cccc([N+](=O)[O-])c1` (stereo not shown) [Nicardipine] the “n (Hill coefficient) Radiometric” value (CYP3A4/5 [2]) was 2.5 and the “n (Hill coefficient) LC-MS” value (CYP3A4/5 [3]) was 2.7.
For `CC(=O)N1CCN(c2ccc(OCC3COC(Cn4ccnc4)(c4ccc(Cl)cc4Cl)O3)cc2)CC1` (stereo not shown) [Ketoconazole], the “Inhibition of 6β-hydroxytestosterone formation in cultured hepatocytes” value (CYP3A4/5 [4]) was “almost completely inhibited”, the “Inhibition of [^3H]-H2O formation in cultured hepatocytes” value (CYP3A4/5 [4]) was “almost completely inhibited” and the “Formation rate of 6β-hydroxytestosterone” value (CYP3A4/5 [5]) was “Not detected”.
Work on `Clc1ccc(COC(Cn2ccnc2)c2ccc(Cl)cc2Cl)c(Cl)c1` (stereo not shown) [Miconazole] yielded an IC50 (CYP3A4/5 [1]) of 60 ± 10 nM.
For `CC[C@H]1OC(=O)[C@H](C)[C@@H](O[C@H]2C[C@@](C)(OC)[C@@H](O)[C@H](C)O2)[C@H](C)[C@@H](O[C@@H]2O[C@H](C)C[C@H](N(C)C)[C@H]2O)[C@](C)(O)C[C@@H](C)C(=O)[C@H](C)[C@@H](O)[C@]1(C)O` [erythromycin], the IC50 (CYP3A4) is listed as 130000 nM.
`CC(C)C[C@H]1C(=O)N2CCC[C@H]2[C@]2(O)O[C@](NC(=O)[C@@H]3C=C4c5cccc6[nH]c(Br)c(c56)C[C@H]4N(C)C3)(C(C)C)C(=O)N12` [Bromocriptine] gave an IC50 (CYP3A4/5 [1]) of 1200 ± 300 nM and an IC50 (CYP3A4/5 [6]) of 1400 ± 10 nM.
